Test results from patent US5178662A, “Benzaldehyde acetal compounds, preparation process thereof, and herbicidal compositions containing the same as active ingredients” (Mitsui Toatsu Chemicals, Inc., priority 1990, dated 1993).

Tests used:
[1] = tested on: ALS (acetolactate syntase) from barnyardgrass seedlings; assay: ALS (acetolactate syntase) inhibition test, barnyardgrass enzyme; format: biochemical; details: 10,000 ppm (0.5 μg/0.5 ml) of compound; 1 hour at 30° C.; absorbance at 525 nm
Procedure: (§1) To determine the selectivity in enzyme level between crops and weeds, an ALS inhibition test was conducted using pea as a typical broadleaf crop and barnyardgrass as a representative gramineous weeds.
(§2) After seeds of pea and barnyardgrass were allowed to germinate at 25° C. for 8-14 days in a dark place, partially-purified suspensions (Suspensions A) of acetolactate syntase were separately obtained from the seedlings in accordance with the procedures described in the literature, Plant Physiology, 75, 827-831. In a test tube, 0.5 mg of one of test compounds was weighed, followed by the addition of 0.15 ml of a 20 mM K2 HPO4 solution and 0.25 ml of a reaction substrate medium which consisted of 40 mM of K2 HPO4, 40 mM of sodium pyruvate, 1 mM of TPP, 1 mM of MgCl2 and 20 μM of FAD so that 0.4 ml of a reaction solution (Solution B) was prepared. Added to 0.4 ml of Solution B was 0.1 ml of Suspension A. After the resultant mixture was shaken for 1 hour in a thermostat water bath controlled at 30° C., 50 μl of 6N sulfuric acid were added to terminate the reaction.
(§3) Next, the test tube with the reaction-terminated liquid mixture contained therein was transferred into a thermostat water bath controlled at 60° C. and was heated for 15 minutes. Thereafter, 0.5 ml of a 0.5% creatine solution and 0.5 ml of a 5% alkaline α-naphthol solution were added, and the resultant mixture was maintained at 60° C. for 15 minutes. As a result, the test solution developed a pink-to-red color. After the above operation, the absorbance of the test solution at 525 nm was measured by a spectrophotometer (Absorbance 1 of Test Compound).
(§4) Further, the absorbance (Absorbance 2 of Blank) of a solution obtained by subjecting a portion of Solution B to the above procedures without addition of any test compound and the absorbance (Absorbance 3 of sulfuric acid) of another solution obtained by subjecting another portion of Solution B to the above procedures which using 50 μl of 6N sulfuric acid as a test compound were also measured.

[2] = tested on: ALS (acetolactate syntase) from pea seedlings; assay: ALS (acetolactate syntase) inhibition test, pea enzyme; format: biochemical; details: 10,000 ppm (0.5 μg/0.5 ml) of compound; 1 hour at 30° C.; absorbance at 525 nm
Procedure: as §1, §2, §3, §4

[3] = tested on: Amaranth (Amaranthus viridis); assay: Upland soil application test, amaranth; format: in vivo; details: 1200 h, soil application one day after seeding, 50 g ai/a, wettable powder, fresh weight on 50th day after spray, read-out: Herbicidal effects Amaranth (Amaranthus viridis)
Procedure: (§5) Resin-made 1/1000-are pots were filled with the soil of an upland field. After they were fertilized, cotton and soybean were seeded and 3 cm soil covering was applied. In addition, amaranth, common lambs-quarters, barnyardgrass, green foxtail, large crabgrass and johnsongrass were seeded and 1 cm soil covering was applied. One day later, a wettable powder prepared from a predetermined amount of each test compound in a similar manner to the procedures described in Formulation Example 1 was diluted with water and then sprayed evenly at an application rate equal to 10 l per are onto the surface of the soil by means of a pressure-operated sprayer. The weeds and crops were allowed to grow in a green house and influence to them were observed on the 50th day after the spray. The degree of damages of each test plant and the degree of injury to each crop were determined by measuring fresh weight in each group and indicated by % calculated according to the following formula. [formula]

common lambsquarters [4] = assay: Upland soil application test, common lambsquarters; format: in vivo; details: Chenopodium album, 1200 h; soil application one day after seeding, 50 g ai/a, wettable powder, fresh weight on 50th day after spray; read-out: Herbicidal effects Common lambquarters
Procedure: as §5

[5] = tested on: Barnyardgrass (Echinochloa crusgalli); assay: Upland soil application test, barnyardgrass; format: in vivo; details: Echinochloa crus-galli, 1200 h; soil application one day after seeding, 50 g ai/a, wettable powder, fresh weight on 50th day after spray; read-out: Herbicidal effects Barnyardgrass (Echinochloa crusgalli)
Procedure: as §5

[6] = tested on: Foxtail (Setaria viridis); assay: Upland soil application test, green foxtail; format: in vivo; details: 1200 h, soil application one day after seeding, 50 g ai/a, wettable powder, fresh weight on 50th day after spray, read-out: Herbicidal effects Foxtail (Setaria viridis)
Procedure: as §5

[7] = tested on: Crabgrass (Digitaria adscendens); assay: Upland soil application test, large crabgrass; format: in vivo; details: 1200 h, soil application one day after seeding, 50 g ai/a, wettable powder, fresh weight on 50th day after spray, read-out: Herbicidal effects Crabgrass (Digitaria adscendens)
Procedure: as §5

Johnsongrass [8] = assay: Upland soil application test, johnsongrass; format: in vivo; details: Sorghum halepense, 1200 h; soil application one day after seeding, 50 g ai/a, wettable powder, fresh weight on 50th day after spray; read-out: Herbicidal effects Johnsongrass
Procedure: as §5

Soybean (Glycine max) [9] = assay: Upland soil application test, crop injury soybean; format: in vivo; details: soil application one day after seeding, 50 g ai/a, wettable powder, fresh weight on 50th day after spray
Procedure: as §5

[10] = tested on: Cotton (Gossypium indicum); assay: Upland soil application test, crop injury cotton; format: in vivo; details: soil application one day after seeding, 50 g ai/a, wettable powder, fresh weight on 50th day after spray
Procedure: as §5

[11] = tested on: Amaranth (Amaranthus viridis); assay: Upland foliar application test, amaranth; format: in vivo; details: 960 h, foliar application at stage of 2-3 leaves, 50 g ai/a, emulsion, 40th day after spray, read-out: Herbicidal effects Amaranth (Amaranthus viridis)
Procedure: as §5
(§6) Resin-made 1/1000-are pots were filled with the soil of an upland field. After they were fertilized, cotton and soybean were seeded and 3 cm soil covering was applied. Five days later, amaranth, common lambsquarters, barnyardgrass, green foxtail, large crabgrass and johnsongrass were seeded and 1 cm soil covering was applied. They were allowed to grow in a green house. When each plant grew to the stage of 2-3 leaves, an emulsion formulated from a predetermined amount of each test compound in a similar manner to the procedures described in Formulation Example 11 was diluted with water and then sprayed at a predetermined application rate by means of a pressure-operated sprayer. The application rate was controlled at 5 l per are. Influence to the crops and weeds were observed on the 40th day after the spray of the herbicides. The results are shown in Table 4 in which the degree of damages of each test plant and the degree of injury to each crop are shown in a similar manner to Test 2.

common lambsquarters [12] = assay: Upland foliar application test, common lambsquarters; format: in vivo; details: Chenopodium album, 960 h; foliar application at stage of 2-3 leaves, 50 g ai/a, emulsion, 40th day after spray; read-out: Herbicidal effects Common lambquarters
Procedure: as §6

[13] = tested on: Barnyardgrass (Echinochloa crusgalli); assay: Upland foliar application test, barnyardgrass; format: in vivo; details: Echinochloa crus-galli, 960 h; foliar application at stage of 2-3 leaves, 50 g ai/a, emulsion, 40th day after spray; read-out: Herbicidal effects Barnyardgrass (Echinochloa crusgalli)
Procedure: as §6

[14] = tested on: Foxtail (Setaria viridis); assay: Upland foliar application test, green foxtail; format: in vivo; details: 960 h, foliar application at stage of 2-3 leaves, 50 g ai/a, emulsion, 40th day after spray, read-out: Herbicidal effects Foxtail (Setaria viridis)
Procedure: as §5, §6

[15] = tested on: Crabgrass (Digitaria adscendens); assay: Upland foliar application test, large crabgrass; format: in vivo; details: 960 h, foliar application at stage of 2-3 leaves, 50 g ai/a, emulsion, 40th day after spray, read-out: Herbicidal effects Crabgrass (Digitaria adscendens)
Procedure: as §5, §6

Johnsongrass [16] = assay: Upland foliar application test, johnsongrass; format: in vivo; details: Sorghum halepense, 960 h; foliar application at stage of 2-3 leaves, 50 g ai/a, emulsion, 40th day after spray; read-out: Herbicidal effects Johnsongrass
Procedure: as §6

Soybean (Glycine max) [17] = assay: Upland foliar application test, crop injury soybean; format: in vivo; details: foliar application at stage of 2-3 leaves, 50 g ai/a, emulsion, 40th day after spray
Procedure: as §6

[18] = tested on: Cotton (Gossypium indicum); assay: Upland foliar application test, crop injury cotton; format: in vivo; details: foliar application at stage of 2-3 leaves, 50 g ai/a, emulsion, 40th day after spray
Procedure: as §5, §6

[19] = tested on: johnsongrass emerging from rhizome; assay: Application test on johnsongrass emerging from rhizome; format: in vivo; details: foliar application at stage of 4-5 leaves, application rate of active ingredient 20 (unit not given), emulsion, 50th day after spray
Procedure: as §5
Resin-made 1/1000-are pots were filled with the soil of an upland field. After they were fertilized, rhizome of johnsongrass were transplanted to the pots and 3 cm soil covering was applied. They were allowed to grow in a green house. When each johnsongrass grew to the stage of 4-5 leaves, an emulsion formulated from a predetermined amount of each test compound in a similar manner to the procedures described in Formulation Example 11 was diluted with water and then sprayed at a predetermined application rate by means of a pressure-operated sprayer. The application rate was controlled at 5 l per are. The effect of each compound against the johnsongrass emerging from its rhizome was observed on the 50th day after the spray of the herbicides. The results are shown in Table 5 in which the herbicidal effect against johnsongrass is shown in a similar manner to Test 2.

SMILES | Enzymoreaction inhibition rate (%) Barnyardgrass [1] [%] | Enzymoreaction inhibition rate (%) Pea [2] [%] | pest or weed control at 5000 g/ha [3] [%] | pest or weed control at 5000 g/ha (common lambsquarters [4]) [%] | pest or weed control at 5000 g/ha [5] [%] | pest or weed control at 5000 g/ha [6] [%] | pest or weed control at 5000 g/ha [7] [%] | pest or weed control at 5000 g/ha (Johnsongrass [8]) [%] | Crop injury Soybean (Glycine max) (Soybean (Glycine max) [9]) [%] | Crop injury Cotton (Gossypium indicum) [10] [%] | pest or weed control at 5000 g/ha [11] [%] | pest or weed control at 5000 g/ha (common lambsquarters [12]) [%] | pest or weed control at 5000 g/ha [13] [%] | pest or weed control at 5000 g/ha [14] [%] | pest or weed control at 5000 g/ha [15] [%] | pest or weed control at 5000 g/ha (Johnsongrass [16]) [%] | Crop injury Soybean (Glycine max) (Soybean (Glycine max) [17]) [%] | Crop injury Cotton (Gossypium indicum) [18] [%] | Herbicidal effect against johnsongrass emerging from rhizome [19] [%]
COc1cc(OC)nc(Oc2ccccc2C=O)n1 [Comp. Comp'd B, reference compound] | 98 | 92 | 80 | 85 | 100 | 100 | 100 | 100 | 100 | 100 | 80 | 80 | 100 | 100 | 100 | 100 | 100 | 100 | 35
COc1cc(OC)nc(Oc2c(Cl)cccc2C(OC)OC)n1 [Comp. Comp'd E, reference compound] | – | – | 45 | 50 | 55 | 60 | 60 | 35 | 30 | 30 | 60 | 65 | 65 | 50 | 45 | 30 | 30 | 30 | 5
CCCOC(OCCC)c1ccccc1Oc1nc(OC)cc(OC)n1 [Compound No. 1] | 100 | 0 | 100 | 100 | 100 | 100 | 100 | 100 | 0 | 0 | 100 | 100 | 100 | 100 | 100 | 100 | 0 | 0 | 100
CCOC(OCC)c1ccccc1Oc1nc(OC)cc(OC)n1 [Comp. Comp'd D, 2-(4,6-dimethoxypyrimidin-2-yloxy)benzaldehyde diethylacetal, reference compound] | – | – | 100 | 100 | 100 | 100 | 85 | 100 | 40 | 45 | 100 | 90 | 100 | 95 | 90 | 100 | 35 | 35 | 50
COc1cc(OC)nc(Oc2ccccc2C(OC)OC)n1 [Comp. Comp'd C, 2-(4,6-dimethoxypyrimidin-2-yloxy)benzaldehyde dimethylacetal, reference compound] | – | – | 80 | 100 | 100 | 100 | 100 | 100 | 50 | 55 | 100 | 90 | 100 | 95 | 90 | 100 | 40 | 50 | 40
